Measurements published in patent US20240228555A9, “ANTIMICROBIAL PEPTIDOMIMETICS” (Basilea Pharmaceutica International AG, Allschwil, priority 2020, published 2024).
Read-outs that look alike come from different tables or passages of the source. Where a SMILES comes first, the peptide text is derived from it.

Experiments:
[1] = test system: Escherichia coli ATCC 25922
Procedure: (§1) Lyophilized peptides were weighed on a Microbalance (Mettler MT5) and dissolved in sterile water to a final concentration of 1 mg/mL. Stock solutions were kept at +4° C., light protected.
(§2) Colonies of the microorganisms were diluted in saline (0.85%, NaCl) and adjusted using a McFarland reader (bioMérieux SA, Marcy-l'Etoile, France) to 0.5 McFarland standard. Subsequently, the bacterial suspension was diluted in Mueller-Hinton II (MHII, cation adjusted) broth to give approximately 5×10^5 colony forming units (CFU/mL).
(§3) 10^6 colony forming units (CFU)/mL. Aliquots (90 μl) of inoculate were added to 10 μl of water+P-80 (Polysorbate 80, 0.002% final concentration) containing the peptide in serial two-fold dilutions at 10 fold final concentration. The following microorganisms were used to determine antibiotic selectivity of the peptides: Escherichia coli ATCC 25922, Escherichia coli MCR-1 Af 45 and Klebsiella pneumoniae SSI3010.

[2] = test system: Klebsiella pneumoniae SSI3010
Procedure: as §1, §2, §3

[3] = test system: human red blood cells (hRBC); format: cell-based; details: red cells of human, 1 h, 0.2 g/L
Procedure: as §1
The peptides were tested for their hemolytic activity against human red blood cells (hRBC). Fresh hRBC were washed three times with phosphate buffered saline (PBS) and centrifuged for 5 min at 3000×g. Compounds (200 μg/mL) were incubated with 20% hRBC (v/v) for 1 h at 37° C. and shaking at 300 rpm. A value of 0% and 100% cell lyses, respectively, was determined by incubation of hRBC in the presence of PBS and 2.5% Triton X-100 in H2O, respectively. The samples were centrifuged, the supernatants were 8-fold diluted in PBS buffer and the optical densities (OD) were measured at 540 nm. The 100% lyses value (OD540H2O) gave an OD540 of approximately 0.5-1.0.
Percent hemolysis was calculated as follows: (OD540peptide/OD540H2O)×100%.

[4] = test system: Escherichia coli MCR-1 Af 45; details: Mueller-Hinton broth II, no visible growth after 18-20 hours at 35° C.
Procedure: as §1, §2, §3

[5] = Mueller-Hinton broth II, no visible growth after 18-20 hours at 35° C.

Row | Structure (SMILES) | Escherichia coli ATCC 25922 MIC [1, 5] | Klebsiella pneumoniae SSI3010 MIC [2, 5] | Hemolysis at 0.2 g/L [3] | Klebsiella pneumoniae SSI3010 MIC ([2]; SSI3010) | Escherichia coli ATCC 25922 MIC ([1]; ATCC 25922) | Escherichia coli MCR-1 Af 45 MIC [4]
1 | CCCC[C@H](NC(=O)[C@H](CCCNC(=N)N)NC(=O)[C@H](CCN)NC(=O)[C@@H]1CSSC(C)(C)[C@H](NC(=O)[C@H](Cc2ccc(O)cc2)NC(=O)[C@@H](NC(=O)[C@@H](NC(=O)[C@@H]2C[C@@H](N)CN2C(=O)[C@@H](N)C(C)C)[C@@H](C)CC)[C@@H](C)CC)C(=O)N[C@@H](CC(N)=O)C(=O)N[C@@H](CCCNC(=N)N)C(=O)N[C@@H](CCCNC(=N)N)C(=O)N[C@@H]([C@@H](C)O)C(=O)N[C@H](CCN)C(=O)N[C@@H](CCCCN)C(=O)N1)C(=O)O [Example 2, Val-Pro((4R)NH2)-Ile-Ile-Tyr-Pen-Asn-Arg-Arg-Thr-^DDab-Lys-Cys-Dab-Arg-Nle] (HELM PEPTIDE1{V.[N[C@@H]1C[C@@H](C(=O)[*:2])N([*:1])C1].I.I.Y.[Pen].N.R.R.T.[NCC[C@@H](N[*:1])C(=O)[*:2]].K.C.[Dab].R.[Nle]}$PEPTIDE1,PEPTIDE1,6:R3-13:R3$$$V2.0) | 0.0625 µg/mL | 0.125 µg/mL | 0% |  |  | 
2 | CC[C@H](C)[C@H](NC(=O)[C@@H](NC(=O)[C@@H]1CCCN1C(=O)[C@@H](N)C(C)C)[C@@H](C)CC)C(=O)N[C@@H](Cc1ccc(O)cc1)C(=O)N[C@@H]1C(=O)N[C@@H](CC(N)=O)C(=O)N[C@@H](CCCNC(=N)N)C(=O)N[C@@H](CCN)C(=O)N[C@@H]([C@@H](C)O)C(=O)N[C@H](CCN)C(=O)N[C@@H](CCCCN)C(=O)N[C@H](C(=O)N[C@@H](CCN)C(=O)N[C@@H](CCCNC(=N)N)C(=O)N[C@@H](Cc2ccc(O)cc2)C(=O)O)CSSC1(C)C [Example 7, Val-Pro-Ile-Ile-Tyr-Pen-Asn-Arg-Dab-Thr-^DDab-Lys-Cys-Dab-Arg-Tyr] (HELM PEPTIDE1{V.P.I.I.Y.[Pen].N.R.[Dab].T.[NCC[C@@H](N[*:1])C(=O)[*:2]].K.C.[Dab].R.Y}$PEPTIDE1,PEPTIDE1,6:R3-13:R3$$$V2.0) | 0.0625 µg/mL | 0.125 µg/mL | 0% |  |  | 
3 | CC[C@H](C)[C@H](NC(=O)[C@@H](NC(=O)[C@@H]1C[C@@H](O)CN1C(=O)[C@@H](N)C(C)C)[C@@H](C)CC)C(=O)N[C@@H](Cc1ccc(O)cc1)C(=O)N[C@@H]1C(=O)N[C@@H](CC(N)=O)C(=O)N[C@@H](CCCNC(=N)N)C(=O)N[C@@H](CCN)C(=O)N[C@@H]([C@@H](C)O)C(=O)N[C@H](CCN)C(=O)N[C@@H](CCCCN)C(=O)N[C@H](C(=O)N[C@@H](CCN)C(=O)N[C@@H](CCCNC(=N)N)C(=O)N[C@@H](Cc2ccc(O)cc2)C(=O)O)CSSC1(C)C [Example 14, Val-Hyp-Ile-Ile-Tyr-Pen-Asn-Arg-Dab-Thr-^DDab-Lys-Cys-Dab-Arg-Tyr] (HELM PEPTIDE1{V.[Hyp].I.I.Y.[Pen].N.R.[Dab].T.[NCC[C@@H](N[*:1])C(=O)[*:2]].K.C.[Dab].R.Y}$PEPTIDE1,PEPTIDE1,6:R3-13:R3$$$V2.0) | 0.125 µg/mL |  | 0% | 0.25 µg/mL |  | 
4 | CC[C@H](C)[C@H](NC(=O)[C@@H](NC(=O)[C@@H]1CCCN1C(=O)[C@@H](NC(=N)N)C(C)C)[C@@H](C)CC)C(=O)N[C@@H](Cc1ccc(O)cc1)C(=O)N[C@@H]1C(=O)N[C@@H](CC(N)=O)C(=O)N[C@@H](CCCNC(=N)N)C(=O)N[C@@H](CCN)C(=O)N[C@@H]([C@@H](C)O)C(=O)N[C@H](CCN)C(=O)N[C@@H](CCCCN)C(=O)N[C@H](C(=O)N[C@@H](CCN)C(=O)N[C@@H](CCCNC(=N)N)C(=O)N[C@@H](Cc2ccc(O)cc2)C(=O)O)CSSC1(C)C [Example 54, Gua-Val-Pro-Ile-Ile-Tyr-Pen-Asn-Arg-Dab-Thr-^DDab-Lys-Cys-Dab-Arg-Tyr] (HELM PEPTIDE1{[CC(C)[C@H](NC(=N)N)C(=O)[*:2]].P.I.I.Y.[Pen].N.R.[Dab].T.[NCC[C@@H](N[*:1])C(=O)[*:2]].K.C.[Dab].R.Y}$PEPTIDE1,PEPTIDE1,6:R3-13:R3$$$V2.0) | 0.125 µg/mL | 0.125 µg/mL | 0% |  |  | 
5 | CC[C@H](C)[C@H](NC(=O)[C@@H](NC(=O)[C@@H]1C[C@@H](O)CN1C(=O)[C@@H](NC(=N)N)C(C)C)[C@@H](C)CC)C(=O)N[C@@H](Cc1ccc(O)cc1)C(=O)N[C@@H]1C(=O)N[C@@H](CC(N)=O)C(=O)N[C@@H](CCCNC(=N)N)C(=O)N[C@@H](CCN)C(=O)N[C@@H]([C@@H](C)O)C(=O)N[C@H](CCN)C(=O)N[C@@H](CCCCN)C(=O)N[C@H](C(=O)N[C@@H](CCN)C(=O)N[C@@H](CCCNC(=N)N)C(=O)N[C@@H](Cc2ccc(O)cc2)C(=O)O)CSSC1(C)C [Example 56, Gua-Val-Hyp-Ile-Ile-Tyr-Pen-Asn-Arg-Dab-Thr-^DDab-Lys-Cys-Dab-Arg-Tyr] (HELM PEPTIDE1{[CC(C)[C@H](NC(=N)N)C(=O)[*:2]].[Hyp].I.I.Y.[Pen].N.R.[Dab].T.[NCC[C@@H](N[*:1])C(=O)[*:2]].K.C.[Dab].R.Y}$PEPTIDE1,PEPTIDE1,6:R3-13:R3$$$V2.0) | 0.03125 µg/mL | 0.0625 µg/mL | 0% |  |  | 
6 | CC[C@H](C)[C@H](NC(=O)[C@@H](NC(=O)[C@@H]1C[C@@H](O)CN1C(=O)[C@@H](N)C(C)C)[C@@H](C)CC)C(=O)N[C@@H](Cc1ccc(O)cc1)C(=O)N[C@@H]1C(=O)N[C@@H](CC(N)=O)C(=O)N[C@@H](CCCNC(=N)N)C(=O)N[C@@H](CCN)C(=O)N[C@@H]([C@@H](C)O)C(=O)N[C@H](CCN)C(=O)N[C@@H](CCCCN)C(=O)N[C@H](C(=O)N[C@@H](CCN)C(=O)N[C@@H](CCCNC(N)=O)C(=O)N[C@@H](Cc2ccc(O)cc2)C(=O)O)CSSC1(C)C [Example 73, Val-Hyp-Ile-Ile-Tyr-Pen-Asn-Arg-Dab-Thr-^DDab-Lys-Cys-Dab-Cit-Tyr] (HELM PEPTIDE1{V.[Hyp].I.I.Y.[Pen].N.R.[Dab].T.[NCC[C@@H](N[*:1])C(=O)[*:2]].K.C.[Dab].[Cit].Y}$PEPTIDE1,PEPTIDE1,6:R3-13:R3$$$V2.0) |  |  | <1% | 0.5 µg/mL | 0.5 µg/mL | 0.25 µg/mL
7 | CC[C@H](C)[C@H](NC(=O)[C@@H](NC(=O)[C@@H]1C[C@@H](O)CN1C(=O)[C@@H](N)C(C)C)[C@@H](C)CC)C(=O)N[C@@H](Cc1ccc(O)cc1)C(=O)N[C@@H]1C(=O)N[C@@H](CC(N)=O)C(=O)N[C@@H](CCCNC(=N)N)C(=O)N[C@@H](CCN)C(=O)N[C@@H]([C@@H](C)O)C(=O)N[C@H](CCN)C(=O)N[C@@H](CCCCN)C(=O)N[C@H](C(=O)N[C@@H](CCN)C(=O)N[C@@H](CCN)C(=O)N[C@@H](Cc2ccc(O)cc2)C(=O)O)CSSC1(C)C [Example 74, Val-Hyp-Ile-Ile-Tyr-Pen-Asn-Arg-Dab-Thr-^DDab-Lys-Cys-Dab-Dab-Tyr] (HELM PEPTIDE1{V.[Hyp].I.I.Y.[Pen].N.R.[Dab].T.[NCC[C@@H](N[*:1])C(=O)[*:2]].K.C.[Dab].[Dab].Y}$PEPTIDE1,PEPTIDE1,6:R3-13:R3$$$V2.0) |  |  | <1% | 0.25 µg/mL | 0.125 µg/mL | 0.0625 µg/mL
8 | CC[C@H](C)[C@H](NC(=O)[C@@H](NC(=O)[C@@H]1C[C@@H](O)CN1C(=O)[C@@H](N)C(C)C)[C@@H](C)CC)C(=O)N[C@@H](Cc1ccc(O)cc1)C(=O)N[C@@H]1C(=O)N[C@@H](CC(N)=O)C(=O)N[C@@H](CCCNC(=N)N)C(=O)N[C@@H](CCN)C(=O)N[C@@H](CO)C(=O)N[C@H](CCN)C(=O)N[C@@H](CCCCN)C(=O)N[C@H](C(=O)N[C@@H](CCN)C(=O)N[C@@H](CCCNC(=N)N)C(=O)N[C@@H](Cc2ccc(O)cc2)C(=O)O)CSSC1(C)C [Example 75, Val-Hyp-Ile-Ile-Tyr-Pen-Asn-Arg-Dab-Ser-^DDab-Lys-Cys-Dab-Arg-Tyr] (HELM PEPTIDE1{V.[Hyp].I.I.Y.[Pen].N.R.[Dab].S.[NCC[C@@H](N[*:1])C(=O)[*:2]].K.C.[Dab].R.Y}$PEPTIDE1,PEPTIDE1,6:R3-13:R3$$$V2.0) |  |  | <1% | 0.125 µg/mL | 0.0625 µg/mL | 0.0625 µg/mL
